{
  "source": "patent US20190117669A1",
  "about": "“Methods for Treating NSAID-Induced Cardiovascular, Cerebrovascular, or Renovascular Adverse Events” (University of Utah Research Foundation, priority 2016, published 2019)",
  "origin": "cited, not measured here",
  "key": {"[1]": {"settings": "dogs, misoprostol 3 mcg/kg every 8 hours for 8 days"}, "[2]": {"settings": "rats, all misoprostol-treated groups"}},
  "data": [
    {"smiles": "CCCCC(C)(O)C/C=C/[C@H]1[C@H](O)CC(=O)[C@@H]1CCCCCCC(=O)OC", "note": "(mixture of isomers) [misoprostol]", "values": [
      {"measurement": "azotemia, hyperphosphatemia and renal histopathologic changes versus gentamicin alone", "setting": "[1]", "value": "more severe azotemia, hyperphosphatemia, and renal histopathologic changes"},
      {"measurement": "blood pressure", "setting": "[2]", "value": "increased"}
    ]}
  ]
}
